Measurements reported in patent publication US4863741A, “Tablet composition for drug combinations” (Abbott Laboratories, priority 1989, dated 1989).
Where two headings read alike, the source gives them in different places.

Format: physicochemical
Details: for t90 (time required for 10% destruction of erythromycin activity): 25° C.; for t50 (time required for 50% destruction of erythromycin activity): water
Experimental: To evaluate the feasibility of a single, non-enteric coated preparation containing erythromycin, the times required for 50% destruction of erythromycin activity t50) and 10% destruction of erythromycin activity t90) in aqueous solution at 25° C. were calculated as a function of pH from data reported in the literature.

SMILES: CC[C@H]1OC(=O)[C@H](C)[C@@H](O[C@H]2C[C@@](C)(OC)[C@@H](O)[C@H](C)O2)[C@H](C)[C@@H](O[C@@H]2O[C@H](C)C[C@H](N(C)C)[C@H]2O)[C@](C)(O)C[C@@H](C)C(=O)[C@H](C)[C@@H](O)[C@]1(C)O [erythromycin]
- t90 (time required for 10% destruction of erythromycin activity) (pH 3.0, aqueous solution): 1.52 min
- t90 (time required for 10% destruction of erythromycin activity) (pH 3.5, aqueous solution): 528 min
- t90 (time required for 10% destruction of erythromycin activity) (pH 4.0, aqueous solution): 15.2 min
- t90 (time required for 10% destruction of erythromycin activity) (pH 4.5, aqueous solution): 52.8 min
- t90 (time required for 10% destruction of erythromycin activity) (pH 5.0, aqueous solution): 152 min
- t90 (time required for 10% destruction of erythromycin activity) (pH 5.5, aqueous solution): 528 min
- t90 (time required for 10% destruction of erythromycin activity) (pH 6.0, aqueous solution): 1530 min
- t50 (time required for 50% destruction of erythromycin activity) (pH 3): 0.167 h
- t50 (time required for 50% destruction of erythromycin activity) (pH 3.5): 0.578 h
- t50 (time required for 50% destruction of erythromycin activity) (pH 4): 1.67 h
- t50 (time required for 50% destruction of erythromycin activity) (pH 4.5): 5.79 h
- t50 (time required for 50% destruction of erythromycin activity) (pH 5): 16.7 h
- t50 (time required for 50% destruction of erythromycin activity) (pH 5.5): 57.8 h
- t50 (time required for 50% destruction of erythromycin activity) (pH 6): 167 h
